Assay results published in patent US20240391896A1 (Nantong Jutai Biotech Co., Ltd., priority 2021, published 2024).
pIC50: −log10 of the molar value. Like-named read-outs stand apart in the source and are kept apart here.

What was measured:
HCT116 cells = test: CCK8 cell viability assay in HCT116 cells; assay type: cell-based; conditions: Homo sapiens, HCT-116; Table 2, HCT116 cells, 24 hours
Procedure: • 1. HCT116 cell plating
Digesting, counting, and plating the cells in 96-well plates (flat bottom, transparent) with 10,000 cells/100 ul DMEM (10% FBS) per well; • 2. Observing the state of cells on the next day, and start dosing after cell attachment is intact; • 3. diluting 514 with DMEM (2% FBS) by gradient dilution with concentrations of 20 μM, 10 μM, 5 μM, 2.5 μM, 1.25 μM, 0.625 μM, 0.3125 μM, 0.15625 μM, 0 μM (equal volume of DMSO); • 4. Adding 100 μl of the above different concentrations of 514 to each well, and making two repeat wells for each concentration gradient; leaving three blank wells (only adding DMEM 2% FBS culture medium without cells). • 5. Culturing at 37° C. for 24 hours; • 6. Adding 10 μl CCK-8 enhanced solution to each well: due to the small amount added of CCK-8 in each well, it may cause errors resulting from the reagent staining on the wall of the well. It is recommended to gently tap the culture plate after adding the reagent to help mixing; • 7. Incubating in the incubator for 0.5-4 hours: the amount of Formazan formed is not the same for different cell types, in most cases, incubation for 1 hour is enough. If the color development is not enough, incubation can be continued to determine optimal conditions. • 8. Measuring the absorbance at 450 nm and 600 nm (excluding the interference of the background color of the reagent and the absorbance value of the well plate itself); • 9. Using OD450 nm-OD600 nm for the final absorbance, and calculating the inhibition rate:
[formula] • As: absorbance of experimental wells (medium containing cells, CCK-8, drug to be tested); • Ac: absorbance of control wells (medium containing cells, CCK-8, and no drug to be tested); • Ab: absorbance of blank wells (medium without cells and drug to be tested, CCK-8). (3) qPCR • 1. HCT116 cell plating

BCL9/β-catenin = target: T1, BCL9/β-catenin (Homo sapiens, UniProt P35222); test: FP (BCL-9 avidity) fluorescence polarization competition assay with beta-catenin and FAP-Bcl9 tracer; assay type: binding
T1 sequence (P35222 1-781): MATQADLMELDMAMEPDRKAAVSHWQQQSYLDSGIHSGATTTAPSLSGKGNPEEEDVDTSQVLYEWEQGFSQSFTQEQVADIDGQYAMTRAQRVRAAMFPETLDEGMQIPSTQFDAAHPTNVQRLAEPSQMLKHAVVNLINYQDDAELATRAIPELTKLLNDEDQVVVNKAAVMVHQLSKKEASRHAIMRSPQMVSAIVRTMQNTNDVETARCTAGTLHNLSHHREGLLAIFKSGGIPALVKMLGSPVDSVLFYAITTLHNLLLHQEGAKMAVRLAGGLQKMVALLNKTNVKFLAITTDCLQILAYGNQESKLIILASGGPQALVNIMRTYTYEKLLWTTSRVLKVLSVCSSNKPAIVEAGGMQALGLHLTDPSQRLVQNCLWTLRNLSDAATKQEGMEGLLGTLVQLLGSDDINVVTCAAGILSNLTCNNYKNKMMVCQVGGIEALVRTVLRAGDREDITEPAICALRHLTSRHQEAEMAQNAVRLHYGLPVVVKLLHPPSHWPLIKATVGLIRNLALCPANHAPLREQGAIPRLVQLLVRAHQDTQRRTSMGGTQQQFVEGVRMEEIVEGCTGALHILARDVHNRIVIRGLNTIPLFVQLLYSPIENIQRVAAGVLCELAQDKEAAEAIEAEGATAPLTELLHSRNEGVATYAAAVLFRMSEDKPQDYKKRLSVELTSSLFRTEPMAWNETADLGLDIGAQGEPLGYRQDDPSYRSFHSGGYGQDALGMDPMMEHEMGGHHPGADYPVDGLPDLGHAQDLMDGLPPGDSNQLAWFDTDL
Procedure: Incubating for 2 hours on a horizontal shaker. Then adding 2 nM FAP-Bcl9 tracer to each well, and after incubation for 2H on a horizontal shaker, measuring the […].

Human AXIN2 = test: qPCR of AXIN2 expression in HCT116 cells; assay type: cell-based; conditions: HCT-116, Table 2, HCT116 cells, AXIN2 vs β-actin, 24 hours
Procedure: Cells were digesting, counting, and plating cells in 24-well plates (flat bottom, clear), with 3×10^5 cells/500 ul DMEM (10% FBS) per well. • 2. Observing the state of cells on the next day, and start dosing after cell attachment is intact
Diluting 514 with DMEM (2% FBS) by gradient dilution with concentrations of 20 μM, 10 μM, 5 μM, 2.5 μM, 1.25 μM, 0.625 μM, 0.3125 μM, 0.15625 μM, 0 μM (equal volume DMSO)
Adding 500 μl of the above different concentrations of 514 to each well, and setting a single well for each concentration gradient except three repeat wells for the 0 μM concentration (double wells for qPCR). • 3. Incubating at 37° C. for 24 hours • 4. Discarding the supernatant, washing once with PBS, and adding trizol at 500/well • 5. RNA extraction (step omitted) • 6. Reverse transcription (step omitted, according to the kit) • 7. qPCR (step omitted, following the kit steps)
• 8. calculation of inhibition rate

[1] = Table 1.1, compounds 1-6, read-out: BCL-9 avidity FP IC50
[2] = Table 2, FP (BCL-9 affinity), read-out: FP
[3] = Table 1.2, compounds 7-16, read-out: BCL-9 avidity FP IC50

pIC50 (HCT116 cells) | pIC50 (BCL9/β-catenin; [1]) | pIC50 (BCL9/β-catenin; [2]) | pIC50 (Human AXIN2) | pIC50 (BCL9/β-catenin; [3]) | pIC50 (BCL9/β-catenin; Table 1.3, compounds 15-20, read-out: BCL-9 avidity FP IC50) | SMILES
4.70 to 5.00 | 5.56 | 5.56 | 4.70 to 5.00 | – | – | CC(C)(Oc1cccc(N2CC(C(=O)N(Cc3ccc(-c4c[nH]c5ncccc45)cc3)C3CC3)CC(c3ccccc3)C2)c1)C(=O)N1CCNCC1 (racemic) [Compound 3, N-cyclopropyl-1-(3-{[2-methyl-1-oxo-1-(piperazin-1-yl)propan-2-yl]oxy}phenyl)-5-phenyl-N-[(4-{1H-pyrrolo[2,3-b]pyridin-3-yl}phenyl)methyl]piperidine-3-carboxamide]
4.30 to 5.00 | – | 4.30 to 5.00 | 4.30 to 5.00 | – | – | CC(C)C1CC=C(c2ccc(CN(C(=O)C3CC(c4ccccc4)CN(c4cccc(OC(C)(C)C(=O)N5CCNCC5)c4)C3)C3CC3)cc2)CC1 (racemic) [Compound 4, N-cyclopropyl-1-(3-{[2-methyl-1-oxo-1-(piperazin-1-yl)propan-2-yl]oxy}phenyl)-5-phenyl-N-({4-[4-(propan-2-yl)cyclohex-1-en-1-yl]phenyl}methyl)piperidine-3-carboxamide]
4.70 to 5.00 | 5.65 | 5.21 | 4.70 to 5.00 | – | – | CC(C)(Oc1cccc(N2CC(C(=O)N(Cc3ccc(-c4ccccc4)cc3)C3CC3)CC(c3ccccc3)C2)c1)C(=O)N1CCNCC1 (racemic) [Compound 5, N-cyclopropyl-1-(3-{[2-methyl-1-oxo-1-(piperazin-1-yl)propan-2-yl]oxy}phenyl)-5-phenyl-N-[(4-phenylphenyl)methyl]piperidine-3-carboxamide]
4.70 to 5.00 | 5.11 | 5.11 | 4.70 to 5.00 | – | – | CC(C)(Oc1cccc(N2CC(C(=O)N(Cc3ccc(C4=CCCCC4)cc3)C3CC3)CC(c3ccccc3)C2)c1)C(=O)N1CCNCC1 (racemic) [Compound 6, N-{[4-(cyclohex-1-en-1-yl)phenyl]methyl}-N-cyclopropyl-1-(3-{[2-methyl-1-oxo-1-(piperazin-1-yl)propan-2-yl]oxy}phenyl)-5-phenylpiperidine-3-carboxamide]
4.30 to 5.00 | < 5.00 | 4.30 to 5.00 | 4.30 to 5.00 | – | – | CC(C)(Oc1cccc(N2CC(C(=O)N(Cc3ccc(-c4cn[nH]c4)cc3)C3CC3)CC(C3CCCCC3)C2)c1)C(=O)N1CCNCC1 (centres unmarked) [Compound 1, 5-cyclohexyl-N-cyclopropyl-1-(3-{[2-methyl-1-oxo-1-(piperazin-1-yl)propan-2-yl]oxy}phenyl)-N-{[4-(1H-pyrazol-4-yl)phenyl]methyl}piperidine-3-carboxamide]
4.30 to 5.00 | < 5.00 | 4.30 to 5.00 | 4.70 to 5.00 | – | – | CC(C)(Oc1cccc(N2CC(C(=O)N(Cc3ccc(-c4cn[nH]c4)cc3)C3CC3)CC(c3ccccc3)C2)c1)C(=O)N1CCNCC1 (centres unmarked) [Compound 2, N-cyclopropyl-1-(3-{[2-methyl-1-oxo-1-(piperazin-1-yl)propan-2-yl]oxy}phenyl)-5-phenyl-N-{[4-(1H-pyrazol-4-yl)phenyl]methyl}piperidine-3-carboxamide]
4.70 to 5.00 | – | 4.30 to 5.00 | 4.30 to 5.00 | < 5.00 | – | CC(C)(Oc1cccc(N2CCC[C@@H](C(=O)N(Cc3ccc(-c4c[nH]c5ncccc45)cc3)C3CC3)C2)c1Cl)C(=O)N1CCNCC1 [Compound 8, (3R)-1-(2-chloro-3-{[2-methyl-1-oxo-1-(piperazin-1-yl)propan-2-yl]oxy}phenyl)-N-cyclopropyl-N-[(4-{1H-pyrrolo[2,3-b]pyridin-3-yl}phenyl)methyl]piperidine-3-carboxamide]
4.30 to 5.00 | – | 4.70 to 5.00 | 4.30 to 5.00 | < 5.00 | – | CC(C)(Oc1ccc(Cl)c(N2CCC[C@@H](C(=O)N(Cc3ccc(-c4cn[nH]c4)cc3)C3CC3)C2)c1)C(=O)N1CCNCC1 [Compound 9]
4.70 to 5.00 | – | 5.57 | 4.70 to 5.00 | 5.57 | – | CC(C)(Oc1ccc(Cl)c(N2CCC[C@@H](C(=O)N(Cc3ccc(C4=CCCCC4)cc3)C3CC3)C2)c1)C(=O)N1CCNCC1 [Compound 10, (3R)-1-(2-chloro-5-{[2-methyl-1-oxo-1-(piperazin-1-yl)propan-2-yl]oxy}phenyl)-N-{[4-(cyclohex-1-en-1-yl)phenyl]methyl}-N-cyclopropylpiperidine-3-carboxamide]
4.70 to 5.00 | – | 5.61 | 4.70 to 5.00 | 5.61 | – | CC(C)(Oc1ccc(Cl)c(N2CCC[C@@H](C(=O)N(Cc3ccc(-c4c[nH]c5ncccc45)cc3)C3CC3)C2)c1)C(=O)N1CCNCC1 [Compound 11, (3R)-1-(2-chloro-5-{[2-methyl-1-oxo-1-(piperazin-1-yl)propan-2-yl]oxy}phenyl)-N-cyclopropyl-N-[(4-{1H-pyrrolo[2,3-b]pyridin-3-yl}phenyl)methyl]piperidine-3-carboxamide]
4.30 to 5.00 | – | 4.70 to 5.00 | 4.70 to 5.00 | < 5.00 | – | CC(C)(Oc1cccc(N2CCC[C@@H](C(=O)N(Cc3ccc(-c4cn[nH]c4)c(Cl)c3)C3CC3)C2)c1)C(=O)N1CCNCC1 [Compound 12, (3R)-N-{[3-chloro-4-(1H-pyrazol-4-yl)phenyl]methyl}-N-cyclopropyl-1-(3-{[2-methyl-1-oxo-1-(piperazin-1-yl)propan-2-yl]oxy}phenyl)piperidine-3-carboxamide]
4.30 to 5.00 | – | 4.30 to 5.00 | 4.30 to 5.00 | – | – | CC(C)(Oc1cccc(N2CCC[C@@H](C(=O)N(Cc3ccc(C4=CCCCC4)c(Cl)c3)C3CC3)C2)c1)C(=O)N1CCNCC1 [Compound 13, (3R)-N-{[3-chloro-4-(cyclohex-1-en-1-yl)phenyl]methyl}-N-cyclopropyl-1-(3-{[2-methyl-1-oxo-1-(piperazin-1-yl)propan-2-yl]oxy}phenyl)piperidine-3-carboxamide]
4.30 to 5.00 | – | 4.30 to 5.00 | 4.30 to 5.00 | – | – | CC(C)(Oc1cccc(N2CCC[C@@H](C(=O)N(Cc3ccc(-c4ccccc4)c(Cl)c3)C3CC3)C2)c1)C(=O)N1CCNCC1 [Compound 14, (3R)-N-[(3-chloro-4-phenylphenyl)methyl]-N-cyclopropyl-1-(3-{[2-methyl-1-oxo-1-(piperazin-1-yl)propan-2-yl]oxy}phenyl)piperidine-3-carboxamide]
5.62 | – | 4.70 to 5.00 | 4.70 to 5.00 | – | 4.70 to 5.00 | CC(C)(Nc1cccc(N2CCC[C@@H](C(=O)N(Cc3ccc(-c4cn[nH]c4)cc3)C3CC3)C2)c1)C(=O)N1CCNCC1 [Compound 15, (3R)-N-cyclopropyl-1-(3-{[2-methyl-1-oxo-1-(piperazin-1-yl)propan-2-yl]amino}phenyl)-N-{[4-(1H-pyrazol-4-yl)phenyl]methyl}piperidine-3-carboxamide]
